Measurements: patent US4178436A, “Semi-synthetic oleandomycin derivatives-C8 modifications” (Pfizer Inc., priority 1978, dated 1979)
In brackets after ≈: the same amount, converted by molar mass.

Legend:
Staph. aureus 01A005 = assay: protection against in vivo infection in mice infected with Staph. aureus 01A005 (test procedure of Retsema); settings: subcutaneous or oral administration to mice infected with Staph. aureus 01A005; compared with natural oleandomycin
Procedure: The ability of some compounds of the present invention to protect against in vivo infections was determined by subcutaneous or oral administration to mice infected with Staph. aureus 01A005. Using the test procedure of Retsema [J. A. Retsema, et al., Antimicr.

Strep.py 02C203 = assay: in vitro minimum inhibitory concentration (MIC) method of Ericsson and Sherris; format: cell-based; settings: Strep.py 02C203, Gram-positive
From the text: (§1) The oleandomycin compounds of the present invention are effective in inhibiting the growth of microorganisms, especially Gram-positive microorganisms. That is, the high activity against Gram-positive organisms in general shown by these compounds can be contrasted in some respects with the lower activity show against certain especially virulent and well known Gram-negative organisms. The following table illustrates the in vitro antibiotic spectrum of the compound of the instant invention. The tests were run according to the "minimum inhibitory concentration" (MIC) method of Ericsson and Sherris [H. M. Ericsson and J. C. Sherris, Acta. Pathol. Microbiol. Scand. Suppl., 217B, 64 (1971)].

Staph.aureus 01A005 = assay: as above; format: cell-based; settings: Staphylococcus aureus; Staph.aureus 01A005, Gram-positive
From the text: as §1

Salm.typhm. 58D009 = assay: as above; format: cell-based; settings: Salm.typhm. 58D009, Gram-negative
From the text: as §1

E.coli 51A226 = assay: as above; format: cell-based; settings: Escherichia coli; E.coli 51A226, Gram-negative
From the text: as §1

Staph.aureus 01A400R = assay: as above; format: cell-based; settings: Staphylococcus aureus, Gram-positive
From the text: as §1

Neisseriae Sicca 66C001 = assay: as above; format: cell-based; settings: Neisseriae Sicca 66C001, Gram-negative
From the text: as §1

Klebsiella pn. 53A009 = assay: as above; format: cell-based; settings: Klebsiella pn. 53A009, Gram-negative
From the text: as §1

SMILES | MIC (Strep.py 02C203) [µg/mL] | MIC (Staph.aureus 01A005) [µg/mL] | MIC (Salm.typhm. 58D009) [µg/mL] | MIC (E.coli 51A226) [µg/mL] | MIC (Staph.aureus 01A400R) [µg/mL] | MIC (Neisseriae Sicca 66C001) [µg/mL] | MIC (Klebsiella pn. 53A009) [µg/mL] | protection against infection (Staph. aureus 01A005)
CO[C@H]1C[C@H](O[C@H]2[C@H](C)[C@@H](O[C@@H]3O[C@H](C)C[C@H](N(C)C)[C@H]3OC(C)=O)[C@@H](C)C[C@@H](CO)C(=O)[C@H](C)[C@@H](O)[C@@H](C)[C@@H](C)OC(=O)[C@@H]2C)O[C@@H](C)[C@@H]1O [Example 2, 8,8a-Deoxy-8-hydroxymethyl-2'-acetyloleandomycin] | 1.56 (≈ 2.13 µM) | 6.25 (≈ 8.54 µM) | > 200 | > 200 | 12.5 (≈ 17.1 µM) | 0.39 (≈ 0.533 µM) | > 200 | protection against infection which was comparable to natural oleandomycin
CO[C@H]1C[C@H](O[C@H]2[C@H](C)[C@@H](O[C@@H]3O[C@H](C)C[C@H](N(C)C)[C@H]3O)[C@@H](C)C[C@@H](CN(C)C)C(=O)[C@H](C)[C@@H](O)[C@@H](C)[C@@H](C)OC(=O)[C@@H]2C)O[C@@H](C)[C@@H]1OC(C)=O [Example 14, 8,8a-Deoxy-8-dimethylaminomethyl-4"-acetyloleandomycin] | 50 (≈ 65.9 µM) | 25 (≈ 32.9 µM) | > 200 | > 200 | 50 (≈ 65.9 µM) | 1.56 (≈ 2.06 µM) | > 200 | –
CO[C@H]1C[C@H](O[C@H]2[C@H](C)[C@@H](O[C@@H]3O[C@H](C)C[C@H](N(C)C)[C@H]3O)[C@@H](C)C[C@@H](CNC(C)=O)C(=O)[C@H](C)[C@@H](O)[C@@H](C)[C@@H](C)OC(=O)[C@@H]2C)O[C@@H](C)[C@@H]1OC(C)=O [Example 19, 8,8a-Deoxy-8-(N-acetyl)aminomethyl-4"-acetyloleandomycin] | – | – | – | – | – | – | – | protection against infection which was comparable to natural oleandomycin

Continued by falling MIC (Staph.aureus 01A005), values first:

MIC (Strep.py 02C203) [µg/mL] | MIC (Staph.aureus 01A005) [µg/mL] | MIC (Salm.typhm. 58D009) [µg/mL] | MIC (E.coli 51A226) [µg/mL] | MIC (Staph.aureus 01A400R) [µg/mL] | MIC (Neisseriae Sicca 66C001) [µg/mL] | MIC (Klebsiella pn. 53A009) [µg/mL] | SMILES | protection against infection (Staph. aureus 01A005)
3.12 (≈ 3.52 µM) | 100 (≈ 113 µM) | > 200 | > 200 | > 200 | 3.12 (≈ 3.52 µM) | > 200 | CO[C@H]1C[C@H](O[C@H]2[C@H](C)[C@@H](O[C@@H]3O[C@H](C)C[C@H](N(C)C)[C@H]3OC(C)=O)[C@@H](C)C[C@@H](COS(=O)(=O)c3ccc(C)cc3)C(=O)[C@H](C)[C@@H](O)[C@@H](C)[C@@H](C)OC(=O)[C@@H]2C)O[C@@H](C)[C@@H]1O [Example 5, 8,8a-Deoxy-8-tosyloxymethyl-2'-acetyloleandomycin] | –
50 (≈ 68.4 µM) | 6.25 (≈ 8.55 µM) | > 200 | > 200 | 25 (≈ 34.2 µM) | ≤ 0.1 | > 200 | CO[C@H]1C[C@H](O[C@H]2[C@H](C)[C@@H](O[C@@H]3O[C@H](C)C[C@H](N(C)C)[C@H]3O)[C@@H](C)C[C@@H](CN)C(=O)[C@H](C)[C@@H](O)[C@@H](C)[C@@H](C)OC(=O)[C@@H]2C)O[C@@H](C)[C@@H]1OC(C)=O [Example 11, 8,8a-Deoxy-8-aminomethyl-4"-acetyloleandomycin] | –
1.56 (≈ 2.08 µM) | 3.12 (≈ 4.16 µM) | > 200 | 200 (≈ 267 µM) | 50 (≈ 66.6 µM) | ≤ 0.1 | > 200 | CO[C@H]1C[C@H](O[C@H]2[C@H](C)[C@@H](O[C@@H]3O[C@H](C)C[C@H](N(C)C)[C@H]3O)[C@@H](C)C[C@@H](CCl)C(=O)[C@H](C)[C@@H](O)[C@@H](C)[C@@H](C)OC(=O)[C@@H]2C)O[C@@H](C)[C@@H]1OC(C)=O [Example 13, 8,8a-Deoxy-8-chloromethyl-4'-acetyloleandomycin] | protection against infection which was comparable to natural oleandomycin
3.1 (≈ 4.1 µM) | 3.1 (≈ 4.1 µM) | > 200 | > 200 | 12.5 (≈ 16.5 µM) | 0.2 (≈ 0.264 µM) | > 200 | CO[C@H]1C[C@H](O[C@H]2[C@H](C)[C@@H](O[C@@H]3O[C@H](C)C[C@H](N(C)C)[C@H]3O)[C@@H](C)C[C@@H](CN=[N+]=[N-])C(=O)[C@H](C)[C@@H](O)[C@@H](C)[C@@H](C)OC(=O)[C@@H]2C)O[C@@H](C)[C@@H]1OC(C)=O [Example 9, 8,8a-Deoxy8-azidomethyl-4"-acetyloleandomycin] | protection against infection which was comparable to natural oleandomycin
– | 0.39 (≈ 0.499 µM) | > 200 | > 200 | 6.25 (≈ 7.99 µM) | ≤ 0.1 | > 200 | CO[C@H]1C[C@H](O[C@H]2[C@H](C)[C@@H](O[C@@H]3O[C@H](C)C[C@H](N(C)C)[C@H]3O)[C@@H](C)C[C@@H](Cn3ccnc3)C(=O)[C@H](C)[C@@H](O)[C@@H](C)[C@@H](C)OC(=O)[C@@H]2C)O[C@@H](C)[C@@H]1OC(C)=O [Example 24, 8,8a-deoxy-8-(imidazol-1-yl)methyl-4"-acetyloleandomycin] | protection against infection which was comparable to natural oleandomycin
